BindingDB's records for doi:10.1080/14756360310001640913 (Saarland University, 2004)

molecular target: T1, Steroid 17-alpha-hydroxylase/17,20 lyase (Homo sapiens, UniProt P05093); assay: CYP17 Assay; settings: pH 7.4; 37 °C
T1 sequence (P05093 whole entry): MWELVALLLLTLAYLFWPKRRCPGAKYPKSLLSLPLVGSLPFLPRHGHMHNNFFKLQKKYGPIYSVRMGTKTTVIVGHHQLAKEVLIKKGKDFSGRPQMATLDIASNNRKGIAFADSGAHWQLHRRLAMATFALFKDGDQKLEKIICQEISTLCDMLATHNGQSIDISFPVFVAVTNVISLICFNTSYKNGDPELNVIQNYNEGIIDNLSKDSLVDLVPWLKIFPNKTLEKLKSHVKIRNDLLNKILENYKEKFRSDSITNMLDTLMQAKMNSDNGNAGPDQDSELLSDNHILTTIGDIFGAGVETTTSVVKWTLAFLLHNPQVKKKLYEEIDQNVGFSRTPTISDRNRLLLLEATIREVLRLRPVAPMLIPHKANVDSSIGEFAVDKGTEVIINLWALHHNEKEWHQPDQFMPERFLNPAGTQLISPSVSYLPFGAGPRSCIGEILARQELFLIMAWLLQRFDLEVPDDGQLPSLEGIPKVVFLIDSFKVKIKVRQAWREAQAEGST

| SMILES | IC50 |
| --- | --- |
| COc1ccc2c(c1)CCC(Cc1cnc[nH]1)=C2C | 110 nM |
| Oc1ccc(-c2ccc(Cn3ccnc3)cc2)cc1O [4-[4-(1H-imidazol-1-ylmethyl)phenyl]benzene-1,2-diol] | 120 nM |
| COc1cc2c(cc1OC)C(C)=C(Cc1cnc[nH]1)CC2 [5-[(6,7-dimethoxy-1-methyl-3,4-dihydronaphthalen-2-yl)methyl]-1H-imidazole] | 490 nM |
| COc1cc2c(cc1O)C(C)=C(Cc1cnc[nH]1)CC2 [dihydronaphthalene derivative] | 1100 nM |
